What was measured:
Settings in all cases: Compound concentration 10 µM
[1] = molecular target: T1, Alpha-1D adrenergic receptor (Homo sapiens) (UniProt P25100)
T1 sequence (whole entry): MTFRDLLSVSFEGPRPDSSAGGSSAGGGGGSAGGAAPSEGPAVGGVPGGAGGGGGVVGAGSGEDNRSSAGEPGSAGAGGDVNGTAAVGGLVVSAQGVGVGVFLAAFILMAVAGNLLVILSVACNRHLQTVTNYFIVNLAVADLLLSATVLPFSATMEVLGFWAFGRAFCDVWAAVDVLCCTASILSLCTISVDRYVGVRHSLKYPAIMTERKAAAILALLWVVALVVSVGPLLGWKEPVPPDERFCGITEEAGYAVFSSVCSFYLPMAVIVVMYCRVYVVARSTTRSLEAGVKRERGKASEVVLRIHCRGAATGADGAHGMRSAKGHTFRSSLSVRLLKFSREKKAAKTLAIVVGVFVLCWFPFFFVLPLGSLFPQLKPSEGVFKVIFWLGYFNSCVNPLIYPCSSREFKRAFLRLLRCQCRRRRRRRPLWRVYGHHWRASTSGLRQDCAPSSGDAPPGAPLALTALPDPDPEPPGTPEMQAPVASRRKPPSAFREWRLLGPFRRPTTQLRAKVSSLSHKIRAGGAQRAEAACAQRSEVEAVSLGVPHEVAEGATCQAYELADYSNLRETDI
Description: PDSP Primary Binding target: ADRA1D - Compounds are tested at 10 uM concentration, plate are incubated at room temperature in the dark for 90 minutes. Reaction are stopped by vacuum filtration onto 0.3% polyethyleneimine soaked filter mats using Filtermate harvester. Scintilation cocktail is then melted onto microwave-dried filters on a hot plate and the radio activity is counted in Microbia counter.

[2] = molecular target: Muscarinic acetylcholine receptor M3 (Homo sapiens) (UniProt P20309)
Chain of Muscarinic acetylcholine receptor M3 (Homo sapiens) (P20309 whole entry, looked up): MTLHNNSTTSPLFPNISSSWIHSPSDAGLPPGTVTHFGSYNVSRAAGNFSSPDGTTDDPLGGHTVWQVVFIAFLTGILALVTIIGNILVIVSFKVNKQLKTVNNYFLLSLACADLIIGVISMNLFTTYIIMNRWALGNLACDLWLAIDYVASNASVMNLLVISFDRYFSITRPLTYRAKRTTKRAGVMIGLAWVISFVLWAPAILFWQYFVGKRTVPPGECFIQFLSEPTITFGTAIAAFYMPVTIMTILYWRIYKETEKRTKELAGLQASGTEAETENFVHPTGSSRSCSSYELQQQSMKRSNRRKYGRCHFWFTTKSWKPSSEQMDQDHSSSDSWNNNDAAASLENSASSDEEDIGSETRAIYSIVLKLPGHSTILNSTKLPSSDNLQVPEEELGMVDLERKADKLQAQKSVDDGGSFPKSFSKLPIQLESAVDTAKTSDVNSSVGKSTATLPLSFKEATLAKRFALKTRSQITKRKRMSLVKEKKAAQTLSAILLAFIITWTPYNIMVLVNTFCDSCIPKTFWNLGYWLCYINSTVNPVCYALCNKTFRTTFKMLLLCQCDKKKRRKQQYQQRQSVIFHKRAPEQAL
Description: PDSP Primary Binding target: CHRM3 - Compounds are tested at 10 uM concentration, plate are incubated at room temperature in the dark for 90 minutes. Reaction are stopped by vacuum filtration onto 0.3% polyethyleneimine soaked filter mats using Filtermate harvester. Scintilation cocktail is then melted onto microwave-dried filters on a hot plate and the radio activity is counted in Microbia counter.

[3] = molecular target: 5-hydroxytryptamine receptor 1E (Homo sapiens) (UniProt P28566)
Chain of 5-hydroxytryptamine receptor 1E (Homo sapiens) (P28566 whole entry): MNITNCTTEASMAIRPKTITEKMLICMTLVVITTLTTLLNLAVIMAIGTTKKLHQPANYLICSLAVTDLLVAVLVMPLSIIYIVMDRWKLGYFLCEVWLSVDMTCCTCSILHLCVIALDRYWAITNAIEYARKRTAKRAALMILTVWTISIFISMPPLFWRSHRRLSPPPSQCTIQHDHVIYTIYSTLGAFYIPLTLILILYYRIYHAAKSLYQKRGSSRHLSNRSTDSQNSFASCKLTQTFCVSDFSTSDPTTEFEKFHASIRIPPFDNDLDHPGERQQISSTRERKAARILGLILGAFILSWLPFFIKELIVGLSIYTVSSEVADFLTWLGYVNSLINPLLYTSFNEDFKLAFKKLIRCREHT
Description: PDSP Primary Binding target: HTR1E - Compounds are tested at 10 uM concentration, plate are incubated at room temperature in the dark for 90 minutes. Reaction are stopped by vacuum filtration onto 0.3% polyethyleneimine soaked filter mats using Filtermate harvester. Scintilation cocktail is then melted onto microwave-dried filters on a hot plate and the radio activity is counted in Microbia counter.

[4] = molecular target: Histamine H3 receptor (Homo sapiens) (UniProt Q9Y5N1)
Chain of Histamine H3 receptor (Homo sapiens) (Q9Y5N1 whole entry): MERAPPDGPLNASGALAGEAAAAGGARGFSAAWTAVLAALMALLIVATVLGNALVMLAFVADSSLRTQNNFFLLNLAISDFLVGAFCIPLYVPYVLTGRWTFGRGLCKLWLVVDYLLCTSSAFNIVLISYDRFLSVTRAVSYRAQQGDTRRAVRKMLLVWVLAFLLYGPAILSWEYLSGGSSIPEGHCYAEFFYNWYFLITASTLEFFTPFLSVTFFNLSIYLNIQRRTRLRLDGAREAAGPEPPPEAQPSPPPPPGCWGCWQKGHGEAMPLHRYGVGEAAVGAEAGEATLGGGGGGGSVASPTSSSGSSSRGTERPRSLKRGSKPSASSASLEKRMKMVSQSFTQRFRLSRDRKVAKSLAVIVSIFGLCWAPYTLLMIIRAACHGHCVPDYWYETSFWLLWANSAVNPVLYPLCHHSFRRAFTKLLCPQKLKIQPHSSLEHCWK
Description: PDSP Primary Binding target: HRH3 - Compounds are tested at 10 uM concentration, plate are incubated at room temperature in the dark for 90 minutes. Reaction are stopped by vacuum filtration onto 0.3% polyethyleneimine soaked filter mats using Filtermate harvester. Scintilation cocktail is then melted onto microwave-dried filters on a hot plate and the radio activity is counted in Microbia counter.

[5] = molecular target: Sodium-dependent serotonin transporter (Homo sapiens) (UniProt P31645)
Chain of Sodium-dependent serotonin transporter (Homo sapiens) (P31645 whole entry, looked up): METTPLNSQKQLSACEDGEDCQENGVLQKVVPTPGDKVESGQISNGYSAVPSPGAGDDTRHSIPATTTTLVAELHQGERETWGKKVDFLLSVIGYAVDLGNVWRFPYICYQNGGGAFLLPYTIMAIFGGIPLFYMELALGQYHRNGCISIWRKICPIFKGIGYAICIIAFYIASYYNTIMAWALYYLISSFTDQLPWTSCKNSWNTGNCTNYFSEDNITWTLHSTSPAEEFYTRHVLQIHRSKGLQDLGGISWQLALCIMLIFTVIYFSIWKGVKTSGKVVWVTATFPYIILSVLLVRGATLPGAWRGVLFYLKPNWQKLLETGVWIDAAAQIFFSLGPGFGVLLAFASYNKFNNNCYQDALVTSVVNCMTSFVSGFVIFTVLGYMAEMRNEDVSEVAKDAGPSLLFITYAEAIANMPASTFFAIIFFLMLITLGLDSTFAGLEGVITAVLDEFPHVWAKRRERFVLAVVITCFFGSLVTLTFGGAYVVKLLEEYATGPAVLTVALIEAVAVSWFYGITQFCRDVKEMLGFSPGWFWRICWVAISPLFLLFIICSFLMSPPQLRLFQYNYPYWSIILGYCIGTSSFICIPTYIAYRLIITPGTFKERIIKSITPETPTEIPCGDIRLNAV
Description: PDSP Primary Binding target: SLC6A4 - Compounds are tested at 10 uM concentration, plate are incubated at room temperature in the dark for 90 minutes. Reaction are stopped by vacuum filtration onto 0.3% polyethyleneimine soaked filter mats using Filtermate harvester. Scintilation cocktail is then melted onto microwave-dried filters on a hot plate and the radio activity is counted in Microbia counter.

[6] = molecular target: 5-hydroxytryptamine receptor 1B (Homo sapiens) (UniProt P28222)
Chain of 5-hydroxytryptamine receptor 1B (Homo sapiens) (P28222 whole entry): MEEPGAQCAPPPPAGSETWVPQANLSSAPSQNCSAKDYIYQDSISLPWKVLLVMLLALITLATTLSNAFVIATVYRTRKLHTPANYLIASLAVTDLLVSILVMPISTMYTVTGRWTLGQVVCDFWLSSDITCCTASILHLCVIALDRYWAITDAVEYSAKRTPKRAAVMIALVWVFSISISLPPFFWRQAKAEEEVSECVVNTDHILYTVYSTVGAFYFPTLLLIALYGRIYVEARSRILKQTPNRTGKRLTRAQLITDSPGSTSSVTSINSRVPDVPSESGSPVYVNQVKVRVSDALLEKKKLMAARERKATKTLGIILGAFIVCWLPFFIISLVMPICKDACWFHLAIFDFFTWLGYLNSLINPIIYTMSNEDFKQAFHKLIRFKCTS
Description: PDSP Primary Binding target: HTR1B - Compounds are tested at 10 uM concentration, plate are incubated at room temperature in the dark for 90 minutes. Reaction are stopped by vacuum filtration onto 0.3% polyethyleneimine soaked filter mats using Filtermate harvester. Scintilation cocktail is then melted onto microwave-dried filters on a hot plate and the radio activity is counted in Microbia counter.

[7] = molecular target: T2, Alpha-1A adrenergic receptor (Homo sapiens) (UniProt P35348)
T2 sequence (whole entry): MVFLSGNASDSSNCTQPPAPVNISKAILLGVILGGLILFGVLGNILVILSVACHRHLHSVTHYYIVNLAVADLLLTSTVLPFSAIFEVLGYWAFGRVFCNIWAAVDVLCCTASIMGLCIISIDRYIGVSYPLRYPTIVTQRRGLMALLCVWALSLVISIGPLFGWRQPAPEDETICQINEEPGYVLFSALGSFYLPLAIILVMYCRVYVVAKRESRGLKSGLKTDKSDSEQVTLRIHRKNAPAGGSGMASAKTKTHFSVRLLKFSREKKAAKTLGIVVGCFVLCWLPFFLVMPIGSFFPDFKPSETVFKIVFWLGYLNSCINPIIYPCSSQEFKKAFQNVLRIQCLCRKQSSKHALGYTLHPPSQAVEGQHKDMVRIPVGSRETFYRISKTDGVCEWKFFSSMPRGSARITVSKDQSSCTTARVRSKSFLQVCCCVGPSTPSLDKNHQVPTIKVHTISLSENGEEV
Description: PDSP Primary Binding target: ADRA1A - Compounds are tested at 10 uM concentration, plate are incubated at room temperature in the dark for 90 minutes. Reaction are stopped by vacuum filtration onto 0.3% polyethyleneimine soaked filter mats using Filtermate harvester. Scintilation cocktail is then melted onto microwave-dried filters on a hot plate and the radio activity is counted in Microbia counter.

[8] = molecular target: T3, D(4) dopamine receptor (Homo sapiens) (UniProt P21917)
T3 sequence (whole entry): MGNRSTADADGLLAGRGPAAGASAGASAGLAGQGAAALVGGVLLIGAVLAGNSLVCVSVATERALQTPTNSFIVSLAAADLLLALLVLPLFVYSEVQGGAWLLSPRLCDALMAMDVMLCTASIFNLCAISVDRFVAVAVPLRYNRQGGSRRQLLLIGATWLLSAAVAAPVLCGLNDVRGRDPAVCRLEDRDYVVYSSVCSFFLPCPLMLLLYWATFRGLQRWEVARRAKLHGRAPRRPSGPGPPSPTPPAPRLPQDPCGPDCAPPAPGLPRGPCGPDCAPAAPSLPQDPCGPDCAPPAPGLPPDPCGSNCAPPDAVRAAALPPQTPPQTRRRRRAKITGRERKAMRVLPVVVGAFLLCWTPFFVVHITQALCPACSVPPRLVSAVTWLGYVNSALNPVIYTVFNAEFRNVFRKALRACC
Description: PDSP Primary Binding target: DRD4 - Compounds are tested at 10 uM concentration, plate are incubated at room temperature in the dark for 90 minutes. Reaction are stopped by vacuum filtration onto 0.3% polyethyleneimine soaked filter mats using Filtermate harvester. Scintilation cocktail is then melted onto microwave-dried filters on a hot plate and the radio activity is counted in Microbia counter.

[9] = molecular target: D(2) dopamine receptor (Homo sapiens) (UniProt P14416)
Chain of D(2) dopamine receptor (Homo sapiens) (P14416 whole entry): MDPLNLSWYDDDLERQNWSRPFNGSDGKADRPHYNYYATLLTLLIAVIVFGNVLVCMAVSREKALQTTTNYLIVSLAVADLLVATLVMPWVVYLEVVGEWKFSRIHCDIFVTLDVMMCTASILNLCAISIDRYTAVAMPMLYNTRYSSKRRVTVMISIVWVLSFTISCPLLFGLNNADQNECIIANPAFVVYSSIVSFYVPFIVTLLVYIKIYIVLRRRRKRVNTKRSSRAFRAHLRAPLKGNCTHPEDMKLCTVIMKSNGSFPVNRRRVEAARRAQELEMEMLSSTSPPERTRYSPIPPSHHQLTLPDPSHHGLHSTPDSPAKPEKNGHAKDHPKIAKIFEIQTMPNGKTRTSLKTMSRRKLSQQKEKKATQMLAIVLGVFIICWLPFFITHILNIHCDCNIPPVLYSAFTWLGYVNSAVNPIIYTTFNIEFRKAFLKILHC
Description: PDSP Primary Binding target: DRD2 - Compounds are tested at 10 uM concentration, plate are incubated at room temperature in the dark for 90 minutes. Reaction are stopped by vacuum filtration onto 0.3% polyethyleneimine soaked filter mats using Filtermate harvester. Scintilation cocktail is then melted onto microwave-dried filters on a hot plate and the radio activity is counted in Microbia counter.

[10] = molecular target: Histamine H1 receptor (Homo sapiens) (UniProt P35367)
Chain of Histamine H1 receptor (Homo sapiens) (P35367 whole entry): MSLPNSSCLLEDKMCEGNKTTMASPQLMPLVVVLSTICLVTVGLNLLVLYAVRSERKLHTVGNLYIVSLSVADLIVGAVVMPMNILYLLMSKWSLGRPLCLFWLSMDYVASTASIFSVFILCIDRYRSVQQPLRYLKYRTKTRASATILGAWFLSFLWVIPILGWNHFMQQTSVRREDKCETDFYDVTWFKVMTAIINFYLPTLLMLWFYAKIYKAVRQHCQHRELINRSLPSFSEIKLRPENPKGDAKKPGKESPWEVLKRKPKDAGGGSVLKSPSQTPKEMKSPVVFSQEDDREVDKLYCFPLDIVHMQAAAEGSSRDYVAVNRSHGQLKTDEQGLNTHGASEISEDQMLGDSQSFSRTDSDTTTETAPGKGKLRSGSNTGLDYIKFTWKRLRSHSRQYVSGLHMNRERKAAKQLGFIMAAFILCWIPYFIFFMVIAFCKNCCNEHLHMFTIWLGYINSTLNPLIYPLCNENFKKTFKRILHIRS
Description: PDSP Primary Binding target: HRH1 - Compounds are tested at 10 uM concentration, plate are incubated at room temperature in the dark for 90 minutes. Reaction are stopped by vacuum filtration onto 0.3% polyethyleneimine soaked filter mats using Filtermate harvester. Scintilation cocktail is then melted onto microwave-dried filters on a hot plate and the radio activity is counted in Microbia counter.

[11] = molecular target: T4, Alpha-2A adrenergic receptor (Homo sapiens) (UniProt P08913)
T4 sequence (whole entry): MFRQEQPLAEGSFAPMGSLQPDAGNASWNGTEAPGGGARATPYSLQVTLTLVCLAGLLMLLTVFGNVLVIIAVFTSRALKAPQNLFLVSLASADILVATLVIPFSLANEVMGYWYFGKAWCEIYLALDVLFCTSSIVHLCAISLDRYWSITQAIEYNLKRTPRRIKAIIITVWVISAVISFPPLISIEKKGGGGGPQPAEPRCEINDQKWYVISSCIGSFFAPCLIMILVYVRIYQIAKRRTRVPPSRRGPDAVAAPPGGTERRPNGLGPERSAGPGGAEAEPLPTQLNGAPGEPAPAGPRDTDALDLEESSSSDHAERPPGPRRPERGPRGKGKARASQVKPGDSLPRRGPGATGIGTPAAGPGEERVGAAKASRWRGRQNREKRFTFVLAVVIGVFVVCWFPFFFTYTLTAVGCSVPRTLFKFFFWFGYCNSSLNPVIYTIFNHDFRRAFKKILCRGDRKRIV
Description: PDSP Primary Binding target: ADRA2A - Compounds are tested at 10 uM concentration, plate are incubated at room temperature in the dark for 90 minutes. Reaction are stopped by vacuum filtration onto 0.3% polyethyleneimine soaked filter mats using Filtermate harvester. Scintilation cocktail is then melted onto microwave-dried filters on a hot plate and the radio activity is counted in Microbia counter.

[12] = molecular target: Translocator protein (Homo sapiens) (UniProt P30536)
Chain of Translocator protein (Homo sapiens) (P30536 whole entry): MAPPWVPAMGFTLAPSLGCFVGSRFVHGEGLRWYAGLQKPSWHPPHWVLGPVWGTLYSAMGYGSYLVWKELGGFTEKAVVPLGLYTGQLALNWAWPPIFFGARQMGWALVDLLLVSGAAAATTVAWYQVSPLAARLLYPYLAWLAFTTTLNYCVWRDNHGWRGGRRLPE
Description: PDSP Primary Binding target: TSPO - Compounds are tested at 10 uM concentration, plate are incubated at room temperature in the dark for 90 minutes. Reaction are stopped by vacuum filtration onto 0.3% polyethyleneimine soaked filter mats using Filtermate harvester. Scintilation cocktail is then melted onto microwave-dried filters on a hot plate and the radio activity is counted in Microbia counter.

[13] = molecular target: T5, Muscarinic acetylcholine receptor M5 (Homo sapiens) (UniProt P08912)
T5 sequence (whole entry): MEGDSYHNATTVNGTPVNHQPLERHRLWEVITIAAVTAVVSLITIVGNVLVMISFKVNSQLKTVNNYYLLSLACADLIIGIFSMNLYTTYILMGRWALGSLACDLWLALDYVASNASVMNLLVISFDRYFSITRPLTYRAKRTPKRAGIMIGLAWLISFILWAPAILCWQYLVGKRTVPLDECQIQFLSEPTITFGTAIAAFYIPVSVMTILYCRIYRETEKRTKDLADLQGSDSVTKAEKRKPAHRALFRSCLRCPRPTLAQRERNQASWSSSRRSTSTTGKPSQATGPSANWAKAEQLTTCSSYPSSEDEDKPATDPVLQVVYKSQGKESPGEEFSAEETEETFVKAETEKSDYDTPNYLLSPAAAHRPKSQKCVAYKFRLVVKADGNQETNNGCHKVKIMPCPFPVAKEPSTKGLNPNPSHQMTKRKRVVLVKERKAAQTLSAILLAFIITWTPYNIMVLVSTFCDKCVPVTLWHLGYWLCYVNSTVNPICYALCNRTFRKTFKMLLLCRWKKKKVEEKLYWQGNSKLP
Description: PDSP Primary Binding target: CHRM5 - Compounds are tested at 10 uM concentration, plate are incubated at room temperature in the dark for 90 minutes. Reaction are stopped by vacuum filtration onto 0.3% polyethyleneimine soaked filter mats using Filtermate harvester. Scintilation cocktail is then melted onto microwave-dried filters on a hot plate and the radio activity is counted in Microbia counter.

SMILES | inhibition [1] | inhibition [2] | inhibition [3] | inhibition [4] | inhibition [5] | inhibition [6] | inhibition [7] | inhibition [8] | inhibition [9] | inhibition [10] | inhibition [11] | inhibition [12] | inhibition [13]
CCCCCCCCCCCCCCCCOC[C@H](COP(=O)([O-])OCC[N+](C)(C)C)OC(C)=O | 50.7% | 19.2% | 11.7% | -0.67% | 0.76% | 13.9% | 34.5% | 16.4% | 7.75% | – | – | – | –
O=C(Cc1ccc(Cl)c(Cl)c1)N1CCCC[C@H]1CN1CCCC1 | 12.3% | – | 1.08% | 37.3% | 33.9% | 10.4% | 31.2% | 79.7% | 44.5% | 23.8% | 30.3% | 8.29% | –
CC[C@@H]1CN2C(=O)N(C)c3nc(-c4ccccc4)[nH]c3C2=N1 | – | -6.97% | 23.8% | -5.22% | -6.29% | 6.19% | 4.28% | 10.4% | – | 27.4% | -7.63% | -3.48% | –
CCCCCNC(=O)NS(=O)(=O)c1cc([N+](=O)[O-])ccc1NC1CCCCC1 | 6.55% | 16.6% | 16.8% | 11.4% | 85.4% | 0.02% | -4% | – | 7.7% | 12.8% | – | 34.5% | –
Cc1cccc([C@H](C)c2c[nH]cn2)c1C | 42.8% | – | -0.76% | 2.75% | -4.26% | 31.3% | 63% | 26.9% | 14.4% | – | 104% | -0.25% | 3.92%
CCCCN(CC)c1nc(C)nc2c1c(C)cn2-c1c(C)cc(C)cc1C | 16.5% | – | 18.4% | -0.29% | 2.76% | -9.74% | 18.2% | – | 4.03% | 12.4% | 4.06% | 74.3% | –
CN1C(=O)[C@@H](NC(=O)c2cc3ccccc3[nH]2)N=C(c2ccccc2)c2ccccc21 | -0.46% | – | -6.92% | 5.34% | -8.05% | 27.2% | 2.69% | -8.65% | 4.63% | -6.55% | 11.2% | 59.1% | -5.02%

Reference: ChEMBL document CHEMBL5442219
